Results as given in US20250257059A1, “PROTEIN TYROSINE PHOSPHATASE INHIBITORS AND USES THEREOF” (Nerio Therapeutics, Inc., priority 2022, published 2025).
Where “and” joins values, the source holds several entries; their conditions need not be identical. Identical values can stand only once. Like-named read-outs stand apart in the source and are kept apart here.

Experiments:
[1] = target: full-length human PTPN2 (TC45) (1-387) (Homo sapiens (Human), UniProt P17706); experiment: Enzymatic assay used to determine potency of PTPN2 inhibitors (full length PTPN2 DiFMUP assay); assay type: biochemical; settings: 0.5 nM PTPN2, 100 μM DiFMUP, 30 min at room temperature
full-length human PTPN2 (TC45) (1-387), sequence (P17706 other isoform, or with tags, fused parts or gaps): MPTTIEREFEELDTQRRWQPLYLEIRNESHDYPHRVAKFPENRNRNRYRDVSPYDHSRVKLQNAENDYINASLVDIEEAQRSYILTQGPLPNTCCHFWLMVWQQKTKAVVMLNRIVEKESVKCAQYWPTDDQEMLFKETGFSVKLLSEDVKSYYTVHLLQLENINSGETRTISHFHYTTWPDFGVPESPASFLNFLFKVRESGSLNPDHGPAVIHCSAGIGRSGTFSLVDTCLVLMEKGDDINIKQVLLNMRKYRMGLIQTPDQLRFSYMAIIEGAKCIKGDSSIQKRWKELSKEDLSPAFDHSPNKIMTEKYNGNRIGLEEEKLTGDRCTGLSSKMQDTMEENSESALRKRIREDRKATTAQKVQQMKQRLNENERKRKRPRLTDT
Protocol: Compound activity was determined in an in vitro enzymatic assay using untagged, full-length human PTPN2 (TC45) (1-387) protein. PTPN2 was produced in E. coli as a GST-TEV fusion and the GST was removed by TEV digestion, followed by additional purification to yield full-length PTPN2 (SEQ ID 1). PTPN2 enzyme was diluted in assay buffer (50 mM HEPES pH7.5, 0.2 mM EDTA, 1 mM DTT, 0.02% Brij-35, 0.02% BSA) to a final concentration of 0.5 nM and added to black 384-well non-binding plates (Greiner, 781900). Compounds were subsequently added using a Tecan D300e dispenser. Following a 10 min incubation at room temperature, DiFMUP substrate (ThermoFisher, D22065) was added to a final concentration of 100 μM. Plates were transferred to a SpectraMax plate reader (Molecular Devices) and fluorescence intensity was measured (ex 358, em 455) after a 30 min incubation at room temperature. […] A four-parameter curve fit was used to determine IC50 values from % inhibition data.

[2] = tested on: murine B16F10 melanoma cell line; experiment: B16F10 IFNγ-induced cellular growth inhibition assay (xCELLigence RTCA); assay type: cell-based; settings: B16F10 cells, 1 ng/mL mouse IFNγ, AUC of growth curve, read-out: B16 IFNγ Mediated Growth Inhibition Assay: AVG IC50
Protocol: Compound activity was determined using an interferon gamma (IFNγ)-induced cellular growth inhibition assay with the murine B16F10 melanoma cell line on an Agilent xCELLigence Real-Time Cell Analysis platform (RTCA). RTCA E-Plate View 96 plates (Agilent, 300601010) were pre-equilibrated with 50 μL of assay media (DMEM+10% FBS, Gibco 10566-024, Gibco 10082-147) at 37° C. in a humidified incubator before taking an initial measurement of impedance (sweep). B16F10 cells cultured in assay media were dissociated with TrypLE Express (Gibco 12605-010) for five minutes at 37° C., diluted in 3 volumes of assay buffer, centrifuged for 5 minutes at 500×g at room temperature before diluting cells to 7,700 cells/mL in assay media, plating 130 μL/well (1,000 cells/well) in the inner 60 wells of the assay plate, and adding 150 μL of assay media to the outer wells of the plate. Cells were incubated at room temperature for 20 min to allow cells to settle before placing them in the xCELLigence reader and incubating overnight at 37° C., sweeping wells every 15 minutes. After 24 hours, well readings were paused, plates were removed from the incubator and compounds were added using a Tecan D300e dispenser. All wells were normalized to a final concentration of 0.5% DMSO. Following a 30 min incubation at 37° C., recombinant mouse IFNγ (R&D Systems™ 485MI100) was diluted to 10 ng/mL in assay media and 20 μL was added to assay wells (1 ng/mL final concentration). Assay plates were placed in the xCELLigence reader and swept every 15 minutes.

Row | Compound | IC50 [1] | IC50 ([2]; Mus musculus, B16-F10, 48 h) [nM] | IC50 ([2]; 48 hours) [nM]
1 | CC(C)CCN1CCCCC1Cc1ccc(O)c(N2CC(=O)NS2(=O)=O)c1F (stereo not shown) [Example 76] | 6 nM | 8920 | –
2 | CC(C)(C)CCN1CCCC(Cc2cc(O)c(N3CC(=O)NS3(=O)=O)c(F)c2)C1 (stereo not shown) [Example 35] | 31 nM | 13000 | –
3 | O=C1CN(c2c(O)cc(CCN3CC4(CCCC4)C3)cc2F)S(=O)(=O)N1 [Example 114] | 7 nM | 371 | –
4 | CCCCN1CCCC(Cc2cc(O)c(N3CC(=O)NS3(=O)=O)c(F)c2)C1 (stereo not shown) [Example 38] | 154 nM | > 100000 | –
5 | O=C1CN(c2c(O)cc(CC3CCCN(Cc4cnco4)C3)cc2F)S(=O)(=O)N1 (stereo not shown) [Example 48] | 223 nM | > 33000 | –
6 | O=C1CN(c2c(O)cc(CC3CCN(Cc4cocn4)C3)cc2F)S(=O)(=O)N1 (stereo not shown) [Example 16] | 16 nM | 35800 | –
7 | O=C1CN(c2c(O)cc(CCC3CCCN3)cc2F)S(=O)(=O)N1 (stereo not shown) [Example 66] | 16 nM | 4270 | –
8 | O=C1CN(c2c(O)cc(CC3CCCN(Cc4ccn[nH]4)C3)cc2F)S(=O)(=O)N1 (stereo not shown) [Example 53] | 35 nM | > 100000 | –
9 | CCCN1CCC(Cc2cc(O)c(N3CC(=O)NS3(=O)=O)c(F)c2)C1 (stereo not shown) [Example 11] | 18 nM | 5180 | –
10 | CN1CCCC(Cc2cc(O)c(N3CC(=O)NS3(=O)=O)c(F)c2)C1 (stereo not shown) [Example 31, 5-(2-fluoro-6-hydroxy-4-((1-methylpiperidin-3-yl)methyl)phenyl)-1,2,5-thiadiazolidin-3-one 1,1-dioxide] | 47 nM | 29700 | –
11 | O=C1CN(c2c(O)cc(CC3CCCNC3)cc2F)S(=O)(=O)N1 (stereo not shown) [Example 54] | 75 nM | 25800 | –
12 | CCC1CCCN1CCc1cc(O)c(N2CC(=O)NS2(=O)=O)c(F)c1 (stereo not shown) [Example 84, 5-(4-(2-(2-ethylpyrrolidin-1-yl)ethyl)-2-fluoro-6-hydroxyphenyl)-1,2,5-thiadiazolidin-3-one 1,1-dioxide] | 13 nM | 13700 | –
13 | O=C1CN(c2c(O)cc(CC3CCN(CC4CCOC4)C3)cc2F)S(=O)(=O)N1 (stereo not shown) [Example 15] | 24 nM | > 48000 | –
14 | O=C1CN(c2c(O)cc(CC3CCN(CC4CCCO4)C3)cc2F)S(=O)(=O)N1 (stereo not shown) [Example 14] | 14 nM | 52800 | –
15 | CCCC1CCCN1Cc1cc(O)c(N2CC(=O)NS2(=O)=O)c(F)c1 (stereo not shown) [Example 70, 5-(2-fluoro-6-hydroxy-4-((2-propylpyrrolidin-1-yl)methyl)phenyl)-1,2,5-thiadiazolidin-3-one 1,1-dioxide] | 204 nM | > 45000 | –
16 | CC(C)CN1CCC(CCc2cc(O)c(N3CC(=O)NS3(=O)=O)c(F)c2)C1 (stereo not shown) [Example 63] | 75 nM | > 100000 | –
17 | CCC1CCN(CCc2cc(O)c(N3CC(=O)NS3(=O)=O)c(F)c2)CC1 [Example 125] | 2 nM | 3090 | –
18 | O=C1CN(c2c(O)cc(CCN3CC(CC(F)(F)F)C3)cc2F)S(=O)(=O)N1 [Example 142] | 3 nM | 542 | –
19 | CN1CCC(CCc2cc(O)c(N3CC(=O)NS3(=O)=O)c(F)c2)C1 (stereo not shown) [Example 61, 5-(2-fluoro-6-hydroxy-4-(2-(1-methylpyrrolidin-3-yl)ethyl)phenyl)-1,2,5-thiadiazolidin-3-one 1,1-dioxide] | 19 nM | > 41000 | –
20 | CC(C)CN1CCCC1CCc1cc(O)c(N2CC(=O)NS2(=O)=O)c(F)c1 (stereo not shown) [Example 68] | 46 nM | > 100000 | –
21 | O=C1CN(c2c(O)cc(CC3CCN(Cc4ccoc4)C3)cc2F)S(=O)(=O)N1 (stereo not shown) [Example 12] | 12 nM | 4340 | –

Row | Compound | IC50 [1] | IC50 ([2]; Mus musculus, B16-F10, 48 h) [nM] | IC50 ([2]; 48 hours) [nM]
22 | O=C1CN(c2c(O)cc(CC3CCN(Cc4cnco4)C3)cc2F)S(=O)(=O)N1 (stereo not shown) [Example 4] | 14 nM | > 100000 | –
23 | O=C1CN(c2c(O)cc(CN3CCCC3)cc2F)S(=O)(=O)N1 [Example 73] | 92 nM | 8620 | –
24 | O=C1CN(c2c(O)cc(CC3CCCN(Cc4ncc[nH]4)C3)cc2F)S(=O)(=O)N1 (stereo not shown) [Example 52] | 44 nM | > 73000 | –
25 | O=C1CN(c2c(O)cc(CC3CCCN(Cc4cc[nH]c4)C3)cc2F)S(=O)(=O)N1 (stereo not shown) [Example 39] | 63 nM | > 100000 | –
26 | CC(C)C[C@H]1CCN(CCc2cc(O)c(N3CC(=O)NS3(=O)=O)c(F)c2)C1 (single isomer, unassigned) [Example 119] | 2 nM and 3 nM | 2430 | 1600
27 | CCCCCCN1CCC(Cc2cc(O)c(N3CC(=O)NS3(=O)=O)c(F)c2)C1 (stereo not shown) [Example 13] | 13 nM | 36200 | –
28 | CC(C)(C)C1CN(CCc2cc(O)c(N3CC(=O)NS3(=O)=O)c(F)c2)C1 [Example 129] | 2 nM | 660 | –
29 | O=C1CN(c2c(O)cc(CCC3CCNC3)cc2F)S(=O)(=O)N1 (stereo not shown) [Example 62] | 16 nM | > 100000 | –
30 | CC(C)CN1CCCC(Cc2cc(O)c(N3CC(=O)NS3(=O)=O)c(F)c2)C1 (stereo not shown) [Example 50] | 91 nM | > 100000 | –
31 | O=C1CN(c2c(O)cc(CCN3CCCCC3)cc2F)S(=O)(=O)N1 [Example 90] | 2 nM | 1220 | –
32 | O=C1CN(c2c(O)cc(CCN3CCC(CO)C3)cc2F)S(=O)(=O)N1 (stereo not shown) [Example 102] | 2 nM | 605 | –
33 | O=C1CN(c2c(O)cc(CC3CCN(CC4CCC4)C3)cc2F)S(=O)(=O)N1 (stereo not shown) [Example 22] | 10 nM | 1230 | –
34 | CCCC1CCN(Cc2cc(O)c(N3CC(=O)NS3(=O)=O)c(F)c2)C1 (stereo not shown) [Example 71] | 65 nM | 19300 | –
35 | O=C1CN(c2c(O)ccc(CC3CCCCN3CCc3ccccc3)c2F)S(=O)(=O)N1 (stereo not shown) [Example 78] | 13 nM | 11000 | –
36 | CN1CCCCC1Cc1ccc(O)c(N2CC(=O)NS2(=O)=O)c1F (stereo not shown) [Example 74, 5-(2-fluoro-6-hydroxy-3-((1-methylpiperidin-2-yl)methyl)phenyl)-1,2,5-thiadiazolidin-3-one 1,1-dioxide] | 161 nM | 9290 | –
37 | O=C1CN(c2c(O)cc(CCN3CCC4(CC4)C3)cc2F)S(=O)(=O)N1 [Example 131] | 1 nM | 489 | –
38 | CC(C)(C)CCN1CCC(Cc2cc(O)c(N3CC(=O)NS3(=O)=O)c(F)c2)C1 (stereo not shown) [Example 23] | 14 nM | 4330 | –
39 | CCC1CCN(CCc2cc(O)c(N3CC(=O)NS3(=O)=O)c(F)c2)C1 (stereo not shown) [Example 87] | 3 nM | 299 | –
40 | CC(C)CCN1CCCC[C@H]1Cc1ccc(O)c(N2CC(=O)NS2(=O)=O)c1F (single isomer, unassigned) [Example 82] | 76 nM | 36300 | –
41 | O=C1CN(c2c(O)cc(CCN3CCC(F)(F)C3)cc2F)S(=O)(=O)N1 [Example 91] | 36 nM | > 24000 | –
42 | O=C1CN(c2c(O)cc(CCN3CCC4(CCC4)CC3)cc2F)S(=O)(=O)N1 [Example 105] | 3 nM | 219 | –
